US20130123282A1, “SOLID STATE FORMS OF LINAGLIPTIN” (priority 2011, published 2013)

What was measured:
Format in all cases: physicochemical
[1] = Polymorphic stability on storage under different relative humidity levels (XRD)
From the text: In addition to the properties mentioned above, Form XXII is particularly important as it can be obtained and exist at ambient conditions as single, pure phase. […] is also particularly advantageous, for example, in being non-hygroscopic and polymorphic stable under different relative humidity levels.
(§1) In addition to the properties mentioned above, Form XXII is particularly important as it can be obtained and exist at ambient conditions as single, pure phase. […] Form XXII is also non-hygroscopic and polymorphic stable under different relative humidity levels.
The XRD analyses were performed on ARL (SCINTAG) powder X-Ray diffractometer model X′TRA equipped with a solid state detector. Copper radiation of 1.5418 Å was used. Scanning parameters: range: 2-40 degrees two-theta; scan mode: continuous scan; step size: 0.05°, and a rate of 3 deg/min. The position of the silicon (111) peak was corrected to be 28.45 degrees two theta. The positions of the XRD peaks for the Linagliptin forms were corrected respectively. […]

[2] = Hygroscopicity according to Ph.Eur. chapter 5.11; details: non-hygroscopic = less than 0.2% (w/w) absorption of water, Ph.Eur. 5.11
From the text: As used herein, and unless stated otherwise, the term “non-hygroscopic” in relation to crystalline Linagliptin refers to less than 0.2% (w/w) absorption of water, for example atmospheric water, by the crystalline Linagliptin, as determined according to Ph.Eur. chapter 5.11 (“Hygroscopicity”)

[3] = Polymorphic stability when slurried in solvents; details: slurrying in different solvents, such as acetonitrile and ethanol
From the text: as §1

| solid form found by XRD after exposure to humidity ([1]; exposed to 100% relative humidity for 7 days) | hygroscopicity [2] | polymorphic transformation on slurrying [3] | Compound | polymorphic transformation on storage ([1]; stored for 7 days at room temperature under 0-80% relative humidity) | polymorphic transformation on storage ([1]; stored for 7 days at room temperature under 0-100% relative humidity) |
| --- | --- | --- | --- | --- | --- |
| Linagliptin form XII |  |  | CC#CCn1c(N2CCC[C@@H](N)C2)nc2c1c(=O)n(Cc1nc(C)c3ccccc3n1)c(=O)n2C [Form X, Linagliptin] | no polymorphic transformation is observed |  |
|  | non-hygroscopic | do not transform to other forms | CC#CCn1c(N2CCC[C@@H](N)C2)nc2c1c(=O)n(Cc1nc(C)c3ccccc3n1)c(=O)n2C [Form XXII, Linagliptin] |  | no polymorphic transformation is observed |
